{
  "source": "patent US20240398787A1",
  "about": "“TREATMENT OF MAJOR DEPRESSIVE DISORDER” (AbbVie Inc., priority 2021, published 2024)",
  "key": {"[1]": {"system": "patients with major depressive disorder (MDD)", "experiment": "Clinical Global Impressions-Severity (CGI-S) score, Clinical Study A", "assay_type": "in vivo, human", "conditions": "MMRM; for LS mean change from baseline, CGI-S score / LSMD vs placebo, CGI-S score: week 6", "description": "(§1) A global, multicenter, randomized, double-blind (DB), placebo-controlled, parallel-group, fixed-dose study compared cariprazine 1.5 mg/day and cariprazine 3 mg/day with placebo as an adjunctive treatment to ongoing ADT in outpatients with a diagnosis of MDD (via the Diagnostic and Statistical Manual of Mental Disorders, Fifth Edition [DSM-5]) having an inadequate response, as measured by the modified Antidepressant Treatment Response Questionnaire (ATRQ), to 1 to 3 antidepressants administered during the current episode at an adequate dose and adequate duration. Adequate dose was defined as a dose above the minimum labeled dose (per package insert). Adequate duration was defined as continuous ADT treatment for at least 6 weeks, with a minimum of 3 of 6 weeks above the minimal dose.\n(§2) The study consisted of up to 14 days screening (with up to an additional 7 days of needed) and washout of prohibited medications followed by 6 weeks of double-blind (DB) treatment followed by a 4-week safety follow-up. At the end of the screening period, patients meeting the entry criteria for the study were randomized (1:1:1) to 1 of 3 double-blind treatment groups. Study treatment groups were: cariprazine 1.5 mg/day+antidepressant therapy and cariprazine 3 mg/day+antidepressant therapy. The control group received matching placebo+antidepressant therapy.\n(§3) Dosage/Dose Regimen: Investigational product (cariprazine or placebo) in the form of capsules packaged in blister packs will be provided. No investigational product was administered during the screening/washout period; patients continued the same antidepressant and dose they were on at screening. Patients were taking more than one antidepressant at screening, regardless of the indication, discontinued all other antidepressants prior to baseline (Visit 2). During the double-blind treatment period (6 weeks), patients were administered 1 capsule orally per day in addition to their ongoing ADT. Patients in the 1.5 mg/day+ADT arm were administered 1.5 mg+ADT starting at Visit 2 (Week 0). Patients in the 3 mg/day+ADT arm were administered 1.5 mg+ADT starting at Visit 2 (Week 0) for 2 weeks and then titrate to 3 mg/day+ADT starting at Visit 4 (Week 2). Patients were supplied with identically appearing capsules of either cariprazine 1.5 mg, cariprazine 3 mg, or placebo.\n(§4) A randomized, double-blind, placebo-controlled, multicenter trial with 759 participants was conducted in United States, Bulgaria, Estonia, Germany, Hungary, Ukraine, and the United Kingdom. Following a screening period of up to 14 days (with up to an additional 7 days if needed), which included a washout of prohibited psychotropic medications except for ongoing ADT, patients with a partial response to their antidepressant monotherapy were randomized into three treatment groups (1:1:1). One group received cariprazine 1.5 mg/d+ADT, one received cariprazine 3.0 mg/d+ADT, and one group received placebo+ADT. All participants randomized to cariprazine began on 1.5 mg/d; cariprazine 1.5 mg/d patients remained at that dosage, while cariprazine 3.0 mg/d patients received 1.5 mg/d for 2 weeks and increased to 3.0 mg/d on day 15.\n(§5) The primary and secondary efficacy parameters were change from baseline to week 6 in Montgomery-Åsberg Depression Rating Scale (MADRS) total score and Clinical Global Impressions-Severity (CGI-S) score, respectively (screening, baseline, and weeks 1, 2, 4, and 6). Additional efficacy parameters (screening, baseline, and ≥1 double-blind visit) included: MADRS response (≥50% MADRS total score reduction) and remission (MADRS total score ≤10); change from baseline in HAMD-17 total score and Hamilton Anxiety Rating Scale (HAM-A) total score (32); and Clinical Global Impressions-Improvement (CGI-I) score and response (CGI-I score ≤2).\nThe CGI-S (Guy 1976) is a clinician-rated scale that measures the overall severity of a patient's illness in comparison with the severity in other patients the physician has observed. […]"}, "[2]": {"system": "patients with major depressive disorder (MDD)", "experiment": "Clinical Global Impressions-Improvement (CGI-I) score and response, Clinical Study A", "assay_type": "in vivo, human", "conditions": "for CGI-I response rate (score ≤2): LOCF; for CGI-I LS Mean (change from baseline to week 6) / LSMD vs placebo, CGI-I: MMRM", "description": "as §1, §2, §3, §4\nas §5, with “≤2). […]” for “≤2).”"}, "[3]": {"system": "MDD patients who had inadequate response to ongoing antidepressant treatment", "conditions": "adjunctive, Durgam et al. 2016, cited from earlier work"}, "[4]": {"experiment": "Weight changes, Clinical Study A", "assay_type": "in vivo, human", "description": "as §1, §2, §3\nA randomized, double-blind, placebo-controlled, multicenter trial with 759 participants was conducted in United States, Bulgaria, Estonia, Germany, Hungary, Ukraine, and the United Kingdom. […]"}},
  "note": "Read-outs that look alike come from different tables or passages of the source.",
  "data": [
    {"smiles": "CN(C)C(=O)N[C@H]1CC[C@H](CCN2CCN(c3cccc(Cl)c3Cl)CC2)CC1", "note": "[Cariprazine, trans-N-{4-[2-[4-(2,3-dichlorophenyl)piperazin-1-yl]ethyl]cyclohexyl}-N′,N′-dimethylurea]", "values": [
      {"measurement": "LS Mean (SE) change from baseline, CGI-S score", "setting": "[1]; 1.5 mg/day + ADT, week 1", "result": "−0.3 (0.1)"},
      {"measurement": "LSMD (95% CI) vs placebo + ADT, CGI-S score", "setting": "[1]; 1.5 mg/day + ADT, week 1", "result": "−0.1 (−0.2, 0)"},
      {"measurement": "LS Mean (SE) change from baseline, CGI-S score", "setting": "[1]; 1.5 mg/day + ADT, week 2", "result": "−0.7 (0.1)"},
      {"measurement": "LSMD (95% CI) vs placebo + ADT, CGI-S score", "setting": "[1]; 1.5 mg/day + ADT, week 2", "result": "−0.1 (−0.2, 0.1)"},
      {"measurement": "LS Mean (SE) change from baseline, CGI-S score", "setting": "[1]; 1.5 mg/day + ADT, week 4", "result": "−1.1 (0.1)"},
      {"measurement": "LSMD (95% CI) vs placebo + ADT, CGI-S score", "setting": "[1]; 1.5 mg/day + ADT, week 4", "result": "−0.3 (−0.4, −0.1)"},
      {"measurement": "LS mean change from baseline, CGI-S score", "setting": "[1]; 1.5 mg/day + ADT", "result": "−1.4 (0.1)"},
      {"measurement": "LSMD vs placebo, CGI-S score", "setting": "[1]; 1.5 mg/day + ADT", "result": "−0.3 (−0.5, −0.1)"},
      {"measurement": "LS Mean (SE) change from baseline, CGI-S score", "setting": "[1]; 3 mg/day + ADT, week 1", "result": "−0.3 (0.1)"},
      {"measurement": "LSMD (95% CI) vs placebo + ADT, CGI-S score", "setting": "[1]; 3 mg/day + ADT, week 1", "result": "0 (−0.1, 0.1)"},
      {"measurement": "LS Mean (SE) change from baseline, CGI-S score", "setting": "[1]; 3 mg/day + ADT, week 2", "result": "−0.6 (0.1)"},
      {"measurement": "LSMD (95% CI) vs placebo + ADT, CGI-S score", "setting": "[1]; 3 mg/day + ADT, week 2", "result": "0 (−0.2, 0.1)"},
      {"measurement": "LS Mean (SE) change from baseline, CGI-S score", "setting": "[1]; 3 mg/day + ADT, week 4", "result": "−1.0 (0.1)"},
      {"measurement": "LSMD (95% CI) vs placebo + ADT, CGI-S score", "setting": "[1]; 3 mg/day + ADT, week 4", "result": "−0.1 (−0.3, 0.1)"},
      {"measurement": "LS mean change from baseline, CGI-S score", "setting": "[1]; 3 mg/day + ADT", "result": "−1.3 (0.1)"},
      {"measurement": "LSMD vs placebo, CGI-S score", "setting": "[1]; 3 mg/day + ADT", "result": "−0.2 (−0.4, 0)"},
      {"measurement": "CGI-I response rate (score ≤2)", "setting": "[2]; 1.5 mg/d + ADT, week 6", "result": 51.2, "unit": "%"},
      {"measurement": "CGI-I LS Mean (change from baseline to week 6)", "setting": "[2]; 1.5 mg/d + ADT, week 6", "result": 2.6},
      {"measurement": "LSMD vs placebo, CGI-I", "setting": "[2]; 1.5 mg/d + ADT, week 6", "result": "−0.3"},
      {"measurement": "CGI-I responders (score ≤2)", "setting": "[2]; 1.5 mg/day + ADT, week 1", "result": "29 (11.6) n (%)"},
      {"measurement": "CGI-I response, odds ratio vs placebo (95% CI)", "setting": "[2]; 1.5 mg/day + ADT, week 1", "result": "2.0 (1.0, 3.8)"},
      {"measurement": "CGI-I responders (score ≤2)", "setting": "[2]; 1.5 mg/day + ADT, week 2", "result": "67 (26.8) n (%)"},
      {"measurement": "CGI-I response, odds ratio vs placebo (95% CI)", "setting": "[2]; 1.5 mg/day + ADT, week 2", "result": "1.4 (0.9, 2.1)"},
      {"measurement": "CGI-I responders (score ≤2)", "setting": "[2]; 1.5 mg/day + ADT, week 4", "result": "115 (46.0) n (%)"},
      {"measurement": "CGI-I response, odds ratio vs placebo (95% CI)", "setting": "[2]; 1.5 mg/day + ADT, week 4", "result": "1.6 (1.1, 2.3)"},
      {"measurement": "CGI-I responders (score ≤2)", "setting": "[2]; 1.5 mg/day + ADT, week 6", "result": "128 (51.2) n (%)"},
      {"measurement": "CGI-I response rate (score ≤2)", "setting": "[2]; 3.0 mg/d + ADT, week 6", "result": 50.4, "unit": "%"},
      {"measurement": "CGI-I LS Mean (change from baseline to week 6)", "setting": "[2]; 3 mg/d + ADT, week 6", "result": 2.6},
      {"measurement": "LSMD vs placebo, CGI-I", "setting": "[2]; 3 mg/d + ADT, week 6", "result": "−0.3"},
      {"measurement": "CGI-I responders (score ≤2)", "setting": "[2]; 3 mg/day + ADT, week 1", "result": "20 (7.9) n (%)"},
      {"measurement": "CGI-I response, odds ratio vs placebo (95% CI)", "setting": "[2]; 3 mg/day + ADT, week 1", "result": "1.3 (0.6, 2.6)"},
      {"measurement": "CGI-I responders (score ≤2)", "setting": "[2]; 3 mg/day + ADT, week 2", "result": "62 (24.6) n (%)"},
      {"measurement": "CGI-I response, odds ratio vs placebo (95% CI)", "setting": "[2]; 3 mg/day + ADT, week 2", "result": "1.2 (0.8, 1.9)"},
      {"measurement": "CGI-I responders (score ≤2)", "setting": "[2]; 3 mg/day + ADT, week 4", "result": "102 (40.5) n (%)"},
      {"measurement": "CGI-I response, odds ratio vs placebo (95% CI)", "setting": "[2]; 3 mg/day + ADT, week 4", "result": "1.3 (0.9, 1.8)"},
      {"measurement": "CGI-I responders (score ≤2)", "setting": "[2]; 3 mg/day + ADT, week 6", "result": "127 (50.4) n (%)"},
      {"measurement": "LSMD vs placebo, MADRS total score", "setting": "[3]; 1-2 mg per day variable dosing", "result": "−0.9"},
      {"measurement": "LSMD vs placebo, MADRS total score", "setting": "[3]; 2-4.5 mg per day variable dosing", "result": "−2.2"},
      {"measurement": "Weight change from baseline, mean (SD)", "setting": "[4]; 1.5 mg + ADT, n = 252", "result": "0.68 (2.5) kg"},
      {"measurement": "Weight increase ≥7% from baseline", "setting": "[4]; 1.5 mg + ADT, n = 252", "result": "10 (4.0) n (%)"},
      {"measurement": "Weight change from baseline, mean (SD)", "setting": "[4]; 3 mg + ADT, n = 252", "result": "0.78 (2.8) kg"},
      {"measurement": "Changes in weight at the end of treatment", "setting": "[4]; all treatment groups", "result": "< 1", "unit": "kg"}
    ]}
  ]
}
